From article PMC8869731, “KasQ an Epimerase Primes the Biosynthesis of Aminoglycoside Antibiotic Kasugamycin and KasF/H Acetyltransferases Inactivate Its Activity” (Biomedicines, 2022)
Read-outs that look alike come from different tables or passages of the source.

How the values were obtained:
KasQ = KasQ (Streptomyces kasugaensis, UniProt A0A0K1H2R6); assay: Isothermal titration calorimetry (ITC) of KasQ wild type versus substrates; format: binding; details: for ∆G / ∆H / ∆S / Kd / n: KasQ wild type; for Kd / n: 25 °C, 50 mM HEPES pH 8.0, 100 mM NaCl; for n: ITC binding stoichiometry;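 on all read-outs here: titration of 1 mM substrate into 0.1 mM KasQ, 18 injections spaced 120 s, data fitted to a single-site binding model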
Method: (§3) ITC analyses were carried out at 25 °C using an ITC200 microcalorimeter (MicroCal Inc., Northampton, MA, USA). […] The titration experiment contains 18 injections (2 μL for a duration of 4 s) and each injection was separated by 120 s. The distilled water was filled in the reference cell throughout all titrations. The cell stirring speed was 1000 rpm. The collected raw data were processed in Origin 7.0 (provided by MicroCal) by a non-linear least square method to a single-site binding model.

KasH = KasH (Streptomyces kasugaensis, UniProt A0A0K1H2T0); assay: ITC of KasH versus ligands; details: KasH; for n: ITC binding stoichiometry; for n / Kd: 50 mM MOPS pH 7.5, 100 mM NaCl; for ∆G / ∆H / ∆S / Kd: ITC;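 on all read-outs here: isothermal titration calorimetry at 25 °C, 0.1 mM KasH in the cell titrated with 1 mM ligand over 18 injections, data fit with a one-site binding model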
Method: as §3

KasQ E308A = KasQ E308A (Streptomyces kasugaensis, UniProt A0A0K1H2R6, E308A); assay: biochemical; format: binding
Method: (§1) Site-directed mutagenesis was performed using QuikChange (Stratagene), following the manufacturer’s protocol. The wild-type KasQ plasmid (BCRC12349) was used as the template for the single mutation. All mutations were confirmed by DNA sequencing. KasQ mutants were expressed and purified with the same protocol as used for the wild-type protein.
(§2) The cell stirring speed was 1000 rpm.

KasQ Q95A = KasQ Q95A (Streptomyces kasugaensis, UniProt A0A0K1H2R6, Q95A); assay: biochemical; format: binding
Method: as §1, §2

KasQ Q95E = KasQ Q95E (Streptomyces kasugaensis, UniProt A0A0K1H2R6, Q95E); assay: biochemical; format: binding
Method: as §1, §2

KasH, sequence (A0A0K1H2T0 entry or part of it): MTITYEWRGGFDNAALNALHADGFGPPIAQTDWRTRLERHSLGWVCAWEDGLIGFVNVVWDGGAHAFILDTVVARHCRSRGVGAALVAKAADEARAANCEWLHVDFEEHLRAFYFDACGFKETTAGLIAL
KasQ Q95E, sequence (A0A0K1H2R6 entry or part of it Q95E): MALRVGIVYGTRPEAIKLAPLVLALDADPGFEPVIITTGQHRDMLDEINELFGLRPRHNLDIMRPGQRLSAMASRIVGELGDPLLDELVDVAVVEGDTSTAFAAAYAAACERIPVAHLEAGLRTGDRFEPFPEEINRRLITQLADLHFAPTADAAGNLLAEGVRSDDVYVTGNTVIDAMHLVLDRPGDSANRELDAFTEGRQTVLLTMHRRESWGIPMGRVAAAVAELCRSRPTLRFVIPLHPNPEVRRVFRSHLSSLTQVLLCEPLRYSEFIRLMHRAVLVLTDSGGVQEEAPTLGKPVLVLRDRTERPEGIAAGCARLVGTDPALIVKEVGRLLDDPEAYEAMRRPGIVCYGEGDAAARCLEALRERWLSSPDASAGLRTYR
KasQ Q95A, sequence (A0A0K1H2R6 entry or part of it Q95A): as the sequence (A0A0K1H2R6 entry or part of it Q95E) above, with E95A counted along it
KasQ E308A, sequence (A0A0K1H2R6 entry or part of it E308A): as the sequence (A0A0K1H2R6 entry or part of it Q95E) above, with E95Q counted along it
KasQ, sequence (A0A0K1H2R6 entry or part of it): as the sequence (A0A0K1H2R6 entry or part of it Q95E) above, with E95Q counted along it

Structure (SMILES)	∆G (KasQ; ITC)	∆H (KasQ; ITC)	∆S (KasQ; ITC)	Kd (KasQ; ITC)	other results
CC(=O)NC1=CO[C@H](CO)[C@@H](O)[C@@H]1O [AAG 2, 2-acetamidoglucal]	NBD	NBD	NBD	NBD	Kd (KasQ; ITC, listed as AAG): no binding affinity
Nc1ncnc2c1ncn2[C@@H]1O[C@H](COP(=O)(O)OP(=O)(O)O)[C@@H](O)[C@H]1O [ADP]	NBD	NBD	NBD	nor AMP, ADP, ATP, GMP, GDP, or GTP shows detectable binding affinity and NBD	–
Nc1ncnc2c1ncn2[C@@H]1O[C@H](COP(=O)(O)O)[C@@H](O)[C@H]1O [AMP]	NBD	NBD	NBD	nor AMP, ADP, ATP, GMP, GDP, or GTP shows detectable binding affinity and NBD	–
Nc1ncnc2c1ncn2[C@@H]1O[C@H](COP(=O)(O)OP(=O)(O)OP(=O)(O)O)[C@@H](O)[C@H]1O [ATP]	NBD	NBD	NBD	nor AMP, ADP, ATP, GMP, GDP, or GTP shows detectable binding affinity and NBD	–
CC(=O)SCCNC(=O)CCNC(=O)[C@H](O)C(C)(C)COP(=O)(O)OP(=O)(O)OC[C@H]1O[C@@H](n2cnc3c(N)ncnc32)[C@H](O)[C@@H]1OP(=O)(O)O [AcCoA]	–	–	–	–	n (KasH): 1.3 ± 0.4; ∆G (KasH): -5.240 ± 8.196 kcal/mol; ∆H (KasH): -14.19 ± 8.196 kcal/mol; ∆S (KasH): -30.02 cal mol-1 K-1; Kd (KasH): 161 µM
CC(=O)CC(=O)SCCNC(=O)CCNC(=O)[C@H](O)C(C)(C)COP(=O)(O)OP(=O)(O)OC[C@H]1O[C@@H](n2cnc3c(N)ncnc32)[C@H](O)[C@@H]1OP(=O)(O)O [Acetoacetyl-CoA, acetoacetyl-CoA]	–	–	–	–	n (KasH): 0.5 ± 0.1; ∆G (KasH): -5.469 ± 2.477 kcal/mol; ∆H (KasH): -6.149 ± 2.477 kcal/mol; ∆S (KasH): -2.28 cal mol-1 K-1; Kd (KasH): 98 µM
CC(C)(COP(=O)(O)OP(=O)(O)OC[C@H]1O[C@@H](n2cnc3c(N)ncnc32)[C@H](O)[C@@H]1OP(=O)(O)O)[C@@H](O)C(=O)NCCC(=O)NCCS [CoA]	–	–	–	–	n (KasH): 0.6 ± 0.0; ∆G (KasH): -5.478 ± 1.342 kcal/mol; ∆H (KasH): -7.350 ± 1.342 kcal/mol; ∆S (KasH): -6.28 cal mol-1 K-1; Kd (KasH): 96.1 µM
O=C[C@H](O)[C@@H](O)[C@@H](O)[C@H](O)CO [D-Galactose]	NBD	NBD	NBD	NBD	–
OC[C@H]1OC(O)[C@H](O)[C@@H](O)[C@@H]1O (stereo partly drawn) [D-Glucose]	NBD	NBD	NBD	NBD	–
OC[C@H]1OC(O)[C@@H](O)[C@@H](O)[C@@H]1O (stereo partly drawn) [D-Mannose]	NBD	NBD	NBD	NBD	–
Nc1nc2c(ncn2[C@@H]2O[C@H](COP(=O)(O)OP(=O)(O)OC3O[C@H](CO)[C@@H](O)[C@H](O)[C@H]3O)[C@@H](O)[C@H]2O)c(=O)[nH]1 (some centres unmarked) [GDP-Glc]	NBD	NBD	NBD	NBD	–
Nc1nc2c(ncn2[C@@H]2O[C@H](COP(=O)(O)OP(=O)(O)O[C@H]3O[C@H](CO)[C@@H](O)[C@H](O)[C@@H]3O)[C@@H](O)[C@H]2O)c(=O)[nH]1 [GDP-Man]	NBD	NBD	NBD	NBD	–
Nc1nc2c(ncn2[C@@H]2O[C@H](COP(=O)(O)OP(=O)(O)O)[C@@H](O)[C@H]2O)c(=O)[nH]1 [GDP]	NBD	NBD	NBD	nor AMP, ADP, ATP, GMP, GDP, or GTP shows detectable binding affinity and NBD	–
Nc1nc2c(ncn2[C@@H]2O[C@H](COP(=O)(O)O)[C@@H](O)[C@H]2O)c(=O)[nH]1 [GMP]	NBD	NBD	NBD	nor AMP, ADP, ATP, GMP, GDP, or GTP shows detectable binding affinity and NBD	–
Nc1nc2c(ncn2[C@@H]2O[C@H](COP(=O)(O)OP(=O)(O)OP(=O)(O)O)[C@@H](O)[C@H]2O)c(=O)[nH]1 [GTP]	NBD	NBD	NBD	nor AMP, ADP, ATP, GMP, GDP, or GTP shows detectable binding affinity and NBD	–
O=C(O)[C@H]1OC(O)[C@H](O)[C@@H](O)[C@H]1O (some centres unmarked) [GalA]	NBD	NBD	NBD	NBD	–
CC(=O)N[C@H]1C(O)O[C@H](CO)[C@H](O)[C@@H]1O (some centres unmarked) [GalNAc]	NBD	NBD	NBD	NBD	–
O=C(O)[C@H]1OC(O)[C@H](O)[C@@H](O)[C@@H]1O (some centres unmarked) [GlcA]	NBD	NBD	NBD	NBD	–
CC(=O)N[C@H]1C(O)O[C@H](CO)[C@@H](O)[C@@H]1O (some centres unmarked) [GlcNAc]	NBD	NBD	NBD	NBD	–
N[C@H]1C(O)O[C@H](CO)[C@@H](O)[C@@H]1O (some centres unmarked) [GlcNH2]	NBD	NBD	NBD	NBD	–
CC(C)CC(=O)SCCNC(=O)CCNC(=O)[C@H](O)C(C)(C)COP(=O)(O)OP(=O)(O)OC[C@H]1O[C@@H](n2cnc3c(N)ncnc32)[C@H](O)[C@@H]1OP(=O)(O)O [Isovaleryl-CoA, isovaleryl-CoA]	–	–	–	–	n (KasH): 1.0 ± 0.7; ∆G (KasH): -5.048 ± 3.166 kcal/mol; ∆H (KasH): -3.116 ± 3.166 kcal/mol; ∆S (KasH): 6.48 cal mol-1 K-1; Kd (KasH): 199 µM
CCC(=O)SCCNC(=O)CCNC(=O)[C@H](O)C(C)(C)COP(=O)(O)OP(=O)(O)OC[C@H]1O[C@@H](n2cnc3c(N)ncnc32)[C@H](O)[C@@H]1OP(=O)(O)O [Propionyl-CoA, propionyl-CoA]	–	–	–	–	n (KasH): 0.5 ± 0.0; ∆G (KasH): -6.081 ± 0.3918 kcal/mol; ∆H (KasH): -7.351 ± 0.3918 kcal/mol; ∆S (KasH): -4.26 cal mol-1 K-1; Kd (KasH): 35 µM
Cc1cn([C@H]2C[C@H](O)[C@@H](COP(=O)(O)OP(=O)(O)O[C@H]3O[C@H](CO)[C@@H](O)[C@H](O)[C@H]3O)O2)c(=O)[nH]c1=O [TDP-Glc]	-6.273 ± 0.2773 kcal/mol	-4.568 ± 0.2773 kcal/mol	5.72 cal mol^−1 K^−1	–	n (KasQ): 0.3 ± 0.0; Kd (KasQ; ITC, read-out: Kd): 25.1 ± 0.2 µM
Cc1cn([C@H]2C[C@H](O)[C@@H](COP(=O)(O)OP(=O)(O)OP(=O)(O)O)O2)c(=O)[nH]c1=O [TTP]	-5.128 ± 1.221 kcal/mol	-7.612 ± 1.221 kcal/mol	−8.33 cal mol^−1 K^−1	–	n (KasQ): 1.1 ± 0.1; Kd (KasQ; ITC, read-out: Kd): 174 ± 20.2 µM
O=c1ccn([C@@H]2O[C@H](COP(=O)(O)OP(=O)(O)O)[C@@H](O)[C@H]2O)c(=O)[nH]1 [UDP 3]	-6.128 ± 0.5523 kcal/mol	-4.130 ± 0.5523 kcal/mol	6.70 cal mol^−1 K^−1	–	n (KasQ): 1.0 ± 0.0; Kd (KasQ; ITC, read-out: Kd): 32.2 ± 6.8 µM; binding affinity versus KasQ relative to UMP, UTP and TTP (KasQ; ITC, higher than that of the others): 2–5 fold
CC(=O)N[C@H]1[C@@H](OP(=O)(O)OP(=O)(O)OC[C@H]2O[C@@H](n3ccc(=O)[nH]c3=O)[C@H](O)[C@@H]2O)O[C@H](CO)[C@H](O)[C@@H]1O [UDP-GalNAc]	-4.742 ± 1.700 kcal/mol	-3.418 ± 1.700 kcal/mol	4.44 cal mol^−1 K^−1	–	n (KasQ): 1.8 ± 0.4
O=C(O)[C@H]1O[C@H](OP(=O)(O)OP(=O)(O)OC[C@H]2O[C@@H](n3ccc(=O)[nH]c3=O)[C@H](O)[C@@H]2O)[C@H](O)[C@@H](O)[C@@H]1O [UDP-GlcA]	-5.61 ± 0.5751 kcal/mol	-1.376 ± 0.5751 kcal/mol	14.2 cal mol^−1 K^−1	–	n (KasQ): 1.5 ± 0.2; Kd (KasQ; ITC, read-out: Kd): 76.3 ± 15.2 µM; Kd (KasQ E308A): 106 µM; n (KasQ E308A; ITC binding stoichiometry, KasQ mutant E308A): 1.1 ± 0.7; ∆G (KasQ E308A; ITC, KasQ mutant E308A): -5.421 ± 3.692 kcal/mol; ∆H (KasQ E308A; ITC, KasQ mutant E308A): -3.194 ± 3.692 kcal/mol; ∆S (KasQ E308A; ITC, KasQ mutant E308A): 7.47 cal mol-1 K-1; Kd (KasQ Q95A): 44.4 µM; n (KasQ Q95A; ITC binding stoichiometry, KasQ mutant Q95A): 1.7 ± 0.0; ∆G (KasQ Q95A; ITC, KasQ mutant Q95A): -5.922 ± 0.0847 kcal/mol; ∆H (KasQ Q95A; ITC, KasQ mutant Q95A): -0.6748 ± 0.0847 kcal/mol; ∆S (KasQ Q95A; ITC, KasQ mutant Q95A): 17.6 cal mol-1 K-1; Kd (KasQ Q95E): 11.8 µM; n (KasQ Q95E; ITC binding stoichiometry, KasQ mutant Q95E): 2.1 ± 0.1; ∆G (KasQ Q95E; ITC, KasQ mutant Q95E): -7.15 ± 0.0195 kcal/mol; ∆H (KasQ Q95E; ITC, KasQ mutant Q95E): -0.4413 ± 0.0195 kcal/mol; ∆S (KasQ Q95E; ITC, KasQ mutant Q95E): 22.5 cal mol-1 K-1
O=c1ccn([C@@H]2O[C@H](COP(=O)(O)O)[C@@H](O)[C@H]2O)c(=O)[nH]1 [UMP]	-13.19 ± 1.245 kcal/mol	-9.254 ± 1.245 kcal/mol	–	–	n (KasQ): 1.0 ± 0.0; Kd (KasQ; ITC, read-out: Kd): 124 ± 70.9 µM
O=c1ccn([C@@H]2O[C@H](COP(=O)(O)OP(=O)(O)OP(=O)(O)O)[C@@H](O)[C@H]2O)c(=O)[nH]1 [UTP]	-5.645 ± 1.340 kcal/mol	-9.104 ± 1.340 kcal/mol	−11.6 cal mol^−1 K^−1	–	n (KasQ): 1.0 ± 0.0; Kd (KasQ; ITC, read-out: Kd): 71.4 ± 5.7 µM
